Data set [1] relates to HSP72. Put plainly: HSP72 induction in PC-3 cells (heat shock, proteasome or HSP90 inhibitors), immunoblotting. The data set is classed as cell-based, human. Particulars: for inhibition at 2 µM: Homo sapiens, read-out: HSP72 Inhibition, by NZ28 (2 μM). Background: In western blotting, separated proteins are transferred to a membrane and probed.
In data set [2] the test system is HSF1-activated Hsp70B promoter. Put plainly: HSF1 activity: luciferase reporter under Hsp70B promoter in PC-3 cells after heat shock. Particulars: added 5 hours before 45° C. 10 min, overnight recovery. A general note: A reporter such as luciferase makes a cellular process visible.
A further data set concerns CHO cells. The data set is described as follows: Toxicity in CHO cells. The data set is classed as cell-based. Particulars: CHO cells. From the text: Three of these compounds, including emetine, tubulosine, and NZ28, have significant structural similarity.
Data set [3] has as its system HSP72. The data set is described as follows: HSP72 induction in MM.1S cells (heat shock, proteasome or HSP90 inhibitors), immunoblotting. The class given is cell-based, human. Particulars: for inhibition at 2 µM: Homo sapiens, MM1.S, MM.1s, read-out: HSP72 Inhibition, by NZ28 (2 μM).
A further data set deals with CMV-driven GFP. The data set is described as follows: General protein synthesis: CMV-driven GFP expression in CHO cells. The data set is classed as cell-based. Particulars: added 16 hours post-infection, 24 hours, NZ28 2 μM, emunin 10 μM.
Data set [4] relates to luciferase under the tet-off promoter. The data set is described as follows: General protein synthesis: luciferase induction under tet-off promoter in CHO cells. The class given is cell-based. Particulars: 24 hours, NZ28 1 and 2 μM.
The next data set has as its system HSP27. The data set is described as follows: HSP27 induction by proteasome and HSP90 inhibitors in MM.1S cells, immunoblotting. Particulars: VELCADE or Radicicol, emunin 10 μM, NZ28 2 μM added 5 hours before.
Data set [5] has as its system HSP72. The data set is described as follows: HSP72 induction in MEF cells (proteasome or HSP90 inhibitors), immunoblotting. Particulars: Mus musculus, read-out: HSP72 Inhibition, by NZ28 (2 μM).
Another data set deals with MM.1S cells. Put plainly: Apoptosis by PARP cleavage in MM.1S cells. Particulars: 0.1 μM radicicol 48 h, 2 μM NZ28.
In data set [6] the test system is HSP72 induction (CHO cells). The data set is described as follows: Inhibition of Hsp72 induction by heat shock in CHO cells (immunoblotting). The data set is classed as cell-based.

pIC50: −log10 of the molar value. Like-named read-outs stand apart in the source and are kept apart here.

From patent US20090062222A1, “Methods for Sensitizing Cancer Cells to Inhibitors” (TRUSTEES OF BOSTON UNIVERSITY, priority 2005, published 2009) come the findings set out here.

As usually defined, the inhibition is the relative decrease from the control value, in per cent. Usually pIC50 stands for the IC50 on a negative log10 scale, so that one unit is a factor of ten.

Consider `CCC1=C(CC2NCCc3ccccc32)CC2c3cc(OC)c(OC)cc3CCN2C1` (stereo not shown) [NZ28], for which the inhibition at 2 µM with HSP72 [1] (PC-3, 20 min, PC-3, Heat Shock 45° C., 20 min) worked out at 85%; with HSP72 [1] (PC-3, PC-3, HSP90 Inhibitor 17-AAG 2 μM) it was 70%; in the data set on HSP72 [1] (PC-3, PC-3, Proteasome Inhibitor MG132 1 μM), 90%; in the data set on HSP72 [3] (4 min, Heat Shock 45° C., 4 min) it was 100%; in the data set on HSP72 [3] (HSP90 Inhibitor Radicicol 0.8 μM), 90%; with HSP72 [3] (Proteasome Inhibitor VELCADE 5 nM), 100%. Besides, the inhibition at 2 µM in the data set with HSP72 [5] was 100%; in data set [6] (Cricetulus griseus, 10 min, CHO, Heat Shock 45° C., 10 min, 2 μM, read-out: HSP72 Inhibition, by NZ28 (2 μM)), 99%. The “Inhibition of Hsp72 induction by 17-AAG” value in the data set with HSP72 [1] (PC-3 cells) is recorded as “significant but transient”. For the same molecule, the “Inhibition of luciferase induction by heat shock (Hsp70B promoter reporter)” value in [2] is “about 40%”. For the same molecule, in the data set with CHO cells, the Cell growth inhibition result is on record as “slight growth inhibition”. Also, in the data set on CHO cells, the “Toxicity” value is “did not show toxicity”. Moreover, the pIC50 in the data set with CHO cells (Cricetulus griseus, read-out: IC50 toxicity) is 5.30; in data set [6] (Cricetulus griseus, CHO cells, heat shock (FIGS. 3A and 3B), read-out: IC50 for inhibition of Hsps induction), 6.00; in [6] (Cricetulus griseus, CHO cells, heat shock, read-out: IC50 HSP72 Induction Inhibition (CHO cells)), 6.00. The “Inhibition of Hsp72 induction in response to Hsp90 inhibitors radicicol and 17-AAG” value with HSP72 [3] (MM.1S blocked stronger than PC-3) is recorded as “inhibited induction of Hsp72”. In addition, the “Inhibition of HSP72 induction by proteasome inhibitors” value in the data set with HSP72 [3] (MM.1S, VELCADE or MG132 for 16 hours) is given as “almost completely inhibited HSP72 induction”. In addition, the “Inhibition of GFP expression (CMV promoter)” value with CMV-driven GFP is reported as “No significant inhibition of GFP expression”. For the same molecule, the “Inhibition of luciferase expression (tet-off promoter)” value in data set [4] is reported as “Neither NZ28 (FIG. 3C) nor emunin (not shown) inhibited luciferase expression”. Besides, in the data set on HSP27, the “Inhibition of Hsp27 induction” value is “inhibit HSP72 and HSP27 induction”. Further, the “Sensitization to radicicol (PARP cleavage)” value with MM.1S cells is on record as “similarly sensitized”. The “Inhibition of Hsp72 induction, second step of the screening” value in data set [6] (2 μM, CHO cells, 45° C. 10 min, then 6 hours at 37° C.) was “inhibit Hsp72 induction”.
